Values after ≈ are worked out from the molar mass of the structure shown. Read-outs that look alike come from different tables or passages of the source.

One may read the IC50 as the concentration that gives 50% inhibition. By MIC is commonly meant the smallest concentration in the dilution series that meets the test's criterion for growth inhibition.

Data set [1] concerns the target T1, Acetylcholinesterase from Electrophorus electricus (Electrophorus electricus, UniProt O42275).
T1 construct: purchased Sigma-Aldrich
The data set can be described thus: biochemical. Format: biochemical. The procedure: This bioassay was set up after Ellman. This method is the most commonly used to screen compounds against this target. All reagents, buffers, and salts were purchased from Sigma-Aldrich (Saint-Louis, MO, USA). Two buffer solutions were prepared extemporaneously: buffer A (50 mM Tris-HCl pH 8 + 0.1% BSA); and buffer B (50 mM Tris-HCl pH 8 + 0.1 M NaCl + 0.02 M MgCl2.6H2O). Acetylcholinesterase from Electrophorus electricus (EC 3.1.1.7, AChE−0.2 U/mL) was dissolved in buffer A, 5,5′-dithiobis-2-nitrobenzoic acid (DTNB-Ellman’s reagent−3 mM) in buffer B, and acetylthiocholine iodide (ACTI−6 mM) in H2O. Tested compounds were dissolved in DMSO at 10 mg/mL, stored at −20 °C, and subsequently 100 times diluted in H2O before the assay. 10 μL AChE was preincubated for 10 min with 70 μL DTNB and 10 μL compounds solution in 96-well microplates. The enzymatic reaction was initiated with the addition of 10 μL ACTI, a synthetic substrate of AChE. After 30 min at 25 °C, absorbance of the plate was measured at 405 nm using a microplate reader (Tecan Infinite M200). Percentage of inhibition was calculated using the following equation: 100 × (Acontrol − Asample)/(Acontrol − A0), where Acontrol is the average absorbance of the wells in which tested compounds were replaced by water, Asample is the absorbance of the well with tested compound, and A0 the average absorbance of blank wells where AChE was omitted. Products leading to 50% inhibition of AChE were then submitted to dose-response experiments. Serial dilutions of the products were prepared (100, 50, 25, 12.5, 6.25, 3.125, 1.5625, and 0.78125 µg/mL). Enzymatic assay was performed according to the same procedure with 10 µL of each concentration added. IC50 values (concentration leading to 50% inhibition of enzymatic activity) were graphically determined by plotting the percentage of inhibition against the compound concentrations.
Each assay was performed in triplicate and results are expressed as mean values ± SD.

For a further data set, the system named is Roseobacter littoralis. The data set can be described thus: Antibacterial bioassay, inhibition of bacterial growth (MIC). The data set is classed as cell-based, Roseobacter littoralis (ATCC 495666). Conditions: 48 h; for MIC: read-out: MIC Roseobacter littoralis. The protocol: (§1) Preparation of the compounds: antifouling efficiency of the compounds was assessed towards the inhibition of growth of key bacteria involved in marine and terrestrial surface colonisation. All bioassays were run in six replicates and using two batches of organisms. Compounds were tested at 0.01, 0.1, and 1 µg/mL. 96 well-plates were used and were coated with the compounds. Methanol was used as a carrier solvent and after its evaporation plates were sterilized under UV exposure for 30 min [41].
(§2) Seven strains of marine bacteria i.e., Halomonas aquamarina (ATCC 14400), Polaribacter irgensii (ATCC 700398), Shewanella putrefaciens (ATCC 8071), Roseobacter littoralis (ATCC 495666), Pseudoalteromonas elyakovii (ATCC 700519), Vibrio aestuarianus (ATCC 35048), Vibrio natriegens (ATCC 14058), and three strains of terrestrial bacteria, i.e., Escherichia coli (ATCC 11775), Staphylococcus aureus (ATCC 126000), and Pseudomonas aeruginosa (ATCC 16145) were used to assess the antibacterial potency of the compounds.
(§3) Inhibition of bacterial growth: experiments were run as previously described by Maréchal et al.. 96-well plates containing the compounds were inoculated with the bacteria (2 × 10^8 cells/mL) in LB medium ([…], Sigma, Andover, UK), (supplemented with NaCl (35 g/L) for marine strains), at 30 °C for 48 h. After incubation, the intensity of growth in the presence of the tested compounds and control (media only) was assessed by measurement of the OD 620 nm using a spectrophotometer (Apollo LB912, Berthold Technologies). Results are expressed as minimum inhibitory concentrations (MIC values).

Another data set deals with Escherichia coli. The description is as above. The data set is classed as cell-based, Escherichia coli (ATCC 11775). Conditions: for MIC: Escherichia coli. The procedure:
as §1, §2, §3

A further data set relates to Vibrio aesturianus. Described as above. Format: cell-based, Vibrio aestuarianus (ATCC 35048). The note with it: for MIC: Vibrio. The protocol: as §1, §2, §3
For a further data set, the target named is T2, DNMT1 (Homo sapiens, UniProt P26358).
T2 construct: purchased Active Motif
The data set can be described thus: In vitro DNMT1 activity inhibition assay. Format: biochemical. Conditions: compounds at 50 µM, 25 ng purified DNMT1, 2 h, 37 °C, three independent experiments. The procedure:
DNMT1 activity was measured using in vitro DNMT activity/inhibition assay (Active Motif, Rixensart, Belgium) according to manufacturer’s instructions. All compounds were used at a final 50 µM concentration. The methylation reaction was performed by incubating 25 ng of purified DNMT1 with compounds for 2 h at 37 °C in the presence of 0.01% Triton X-100. The methylated DNA was then recognized by the His-tagged methyl-CpG binding domain protein 2b. The addition of a poly-histidine antibody conjugated to horseradish peroxidase provided a colorimetric readout quantified with a spectrophotometer (SpectraCount, Packard) at the wavelength of 450 nm. Data of DNMT1 activity are reported as percentage of control.

The next data set deals with Halomonas aquamarina. The data set can be described thus: Antibacterial bioassay, inhibition of bacterial growth (MIC). Conditions: for MIC Halomonas aquamarina / MIC: 48 h; for MIC toward Halomonas aquamarina: the lowest concentration tested; for MIC: Vreelandella aquamarina, read-out: MIC Halomonas aquamarina. Format: cell-based, Halomonas aquamarina (ATCC 14400). The protocol: as §1, §2, §3

Data set [2] can be described thus: Degradation of 11-epi-fistularin-3 in acetonitrile/water (+0.1% HCOOH). The note with it: acetonitrile/water (+0.1% HCOOH) 1/1, room temperature, two weeks; HPLC analysis. The data set is classed as physicochemical.
Text: We then decided to manage the degradation process of epi-fistularin-3 (1) in a less drastic conditions by dissolving it in a mixture of acetonitrile/water (+0.1% HCOOH) 1/1 and stirring at room temperature for two weeks. The reaction mixture was then dried under vacuum and chromatographed.
The reaction mixture was then dried under vacuum and submitted for HPLC analysis.
[3] abbreviates: mean ± SD, triplicate, 30 min at 25 °C, absorbance 405 nm, read-out: Acetylcholinesterase IC50.
Where [4] appears, read: tested at 0.01, 0.1 and 1 µg/mL, 30 °C, OD 620 nm.
Setting [5] is: tested at 0.01, 0.1 and 1 µg/mL, 30 °C, 48 h, OD 620 nm.
[6] abbreviates: tested at 0.01, 0.1 and 1 µg/mL, 30 °C, 48 h, OD 620 nm, read-out: MIC Escherichia coli.
The mark [7] stands for this setting: tested at 0.01, 0.1 and 1 µg/mL, 30 °C, 48 h, OD 620 nm, read-out: MIC Vibrio aesturianus.

T1 sequence (O42275 24-633): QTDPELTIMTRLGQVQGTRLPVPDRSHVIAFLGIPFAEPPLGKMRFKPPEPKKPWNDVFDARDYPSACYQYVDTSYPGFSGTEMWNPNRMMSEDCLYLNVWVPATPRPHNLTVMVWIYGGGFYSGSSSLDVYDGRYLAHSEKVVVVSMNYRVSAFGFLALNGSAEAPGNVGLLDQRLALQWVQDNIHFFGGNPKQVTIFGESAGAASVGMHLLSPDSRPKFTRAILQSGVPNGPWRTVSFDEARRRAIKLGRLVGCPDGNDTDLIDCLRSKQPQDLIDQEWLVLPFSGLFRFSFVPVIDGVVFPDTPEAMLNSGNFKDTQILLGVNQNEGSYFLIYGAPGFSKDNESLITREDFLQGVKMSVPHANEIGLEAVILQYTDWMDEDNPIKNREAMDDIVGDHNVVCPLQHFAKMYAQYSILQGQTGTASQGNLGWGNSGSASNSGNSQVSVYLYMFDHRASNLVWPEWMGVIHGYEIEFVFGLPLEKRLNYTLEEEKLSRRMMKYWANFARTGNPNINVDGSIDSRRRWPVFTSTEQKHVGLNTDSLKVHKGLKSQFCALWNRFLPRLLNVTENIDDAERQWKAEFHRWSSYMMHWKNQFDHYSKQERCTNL
T2 sequence (P26358 whole entry): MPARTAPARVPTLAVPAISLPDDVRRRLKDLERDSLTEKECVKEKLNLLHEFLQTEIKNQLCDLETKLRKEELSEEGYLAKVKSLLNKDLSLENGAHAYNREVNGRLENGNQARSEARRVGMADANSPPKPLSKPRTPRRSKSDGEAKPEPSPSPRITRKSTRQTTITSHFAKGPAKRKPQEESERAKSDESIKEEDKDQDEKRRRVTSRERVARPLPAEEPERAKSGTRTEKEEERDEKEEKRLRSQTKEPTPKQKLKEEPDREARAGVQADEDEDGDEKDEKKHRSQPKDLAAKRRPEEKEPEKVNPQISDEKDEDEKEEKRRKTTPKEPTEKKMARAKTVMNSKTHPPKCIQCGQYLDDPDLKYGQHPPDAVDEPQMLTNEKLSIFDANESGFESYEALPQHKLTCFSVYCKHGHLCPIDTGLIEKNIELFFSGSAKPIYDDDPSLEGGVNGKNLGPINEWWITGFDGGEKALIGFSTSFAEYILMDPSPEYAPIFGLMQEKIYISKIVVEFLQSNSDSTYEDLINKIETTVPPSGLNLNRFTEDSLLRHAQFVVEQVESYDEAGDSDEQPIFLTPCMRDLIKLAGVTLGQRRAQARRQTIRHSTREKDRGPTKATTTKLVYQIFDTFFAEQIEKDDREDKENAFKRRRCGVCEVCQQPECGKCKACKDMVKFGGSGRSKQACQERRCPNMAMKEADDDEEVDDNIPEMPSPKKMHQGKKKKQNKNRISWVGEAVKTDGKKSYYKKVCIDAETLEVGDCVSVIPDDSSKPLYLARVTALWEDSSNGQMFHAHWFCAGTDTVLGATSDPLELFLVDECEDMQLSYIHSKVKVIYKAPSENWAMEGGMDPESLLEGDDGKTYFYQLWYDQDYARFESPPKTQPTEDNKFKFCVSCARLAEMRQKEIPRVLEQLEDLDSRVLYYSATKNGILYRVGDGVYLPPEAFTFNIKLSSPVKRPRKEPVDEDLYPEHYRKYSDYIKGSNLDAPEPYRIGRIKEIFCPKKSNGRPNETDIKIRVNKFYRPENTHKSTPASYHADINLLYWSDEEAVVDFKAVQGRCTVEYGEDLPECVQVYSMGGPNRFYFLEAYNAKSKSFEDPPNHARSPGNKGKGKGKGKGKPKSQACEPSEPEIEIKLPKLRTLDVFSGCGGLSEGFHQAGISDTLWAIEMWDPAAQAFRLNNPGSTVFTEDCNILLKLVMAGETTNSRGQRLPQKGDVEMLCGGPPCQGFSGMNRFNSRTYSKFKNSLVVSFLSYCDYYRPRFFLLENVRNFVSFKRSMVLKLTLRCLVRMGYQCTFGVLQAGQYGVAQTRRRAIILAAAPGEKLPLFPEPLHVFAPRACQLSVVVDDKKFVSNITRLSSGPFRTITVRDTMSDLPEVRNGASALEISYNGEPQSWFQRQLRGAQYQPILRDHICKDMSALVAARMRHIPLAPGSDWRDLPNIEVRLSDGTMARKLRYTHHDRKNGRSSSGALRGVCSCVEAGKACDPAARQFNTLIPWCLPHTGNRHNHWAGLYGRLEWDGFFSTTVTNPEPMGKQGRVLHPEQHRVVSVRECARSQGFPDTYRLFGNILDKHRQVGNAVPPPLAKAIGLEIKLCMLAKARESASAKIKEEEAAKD

Turning to `COC1=C(Br)C(O)C2(C=C1Br)CC(C(=O)NCCCOc1c(Br)cc(CCNC(=O)C3=NOC4(C=C(Br)C(OC)=C(Br)C4O)C3)cc1Br)=NO2` (stereo not drawn) [11,17-dideoxyfistularin (14), 11,17-dideoxyfistularin-3], the IC50 in data set [1] (setting [3]) is 10 ± 0.3 µM. Further, in the data set with Roseobacter littoralis (setting [4]), the “MIC Roseobacter littoralis” value is given as over 1 µg/mL. The “MIC Escherichia coli” value with Escherichia coli (setting [5]) was over 1 µg/mL. For the same molecule, the “MIC Vibrio aesturianus” value in the data set with Vibrio aesturianus (setting [5]) was over 1 µg/mL. For the same molecule, on DNMT1, the “DNMT1 activity, percentage of control” value is listed as “statistically significant decrease”. Moreover, the “MIC Halomonas aquamarina” value against Halomonas aquamarina (setting [4]) is 0,01 µg/mL. Besides, the “MIC toward Halomonas aquamarina” value against Halomonas aquamarina was determined as 0.01 µg/mL (≈ 0.00924 µM).

In the case of `COC1=C(Br)[C@H](O)[C@@]2(C=C1Br)CC(C(=O)NCCCOc1c(Br)cc(C(O)CNC(=O)C3=NO[C@]4(C=C(Br)C(OC)=C(Br)[C@@H]4O)C3)cc1Br)=NO2` (stereo partly drawn) [11-deoxyfistularin-3 (13), 11-deoxyfistularin-3], the IC50 in data set [1] (setting [3]) was over 10 µM. Further, the “MIC Roseobacter littoralis” value in the data set on Roseobacter littoralis (setting [4]) is listed as over 1 µg/mL. Also, the “MIC Escherichia coli” value in the data set on Escherichia coli (setting [5]) was over 1 µg/mL. For the same molecule, in the data set with Vibrio aesturianus (setting [5]), the “MIC Vibrio aesturianus” value was over 1 µg/mL. Besides, the “MIC Halomonas aquamarina” value in the data set with Halomonas aquamarina (setting [4]) is listed as 0,01 µg/mL. Moreover, the “MIC toward Halomonas aquamarina” value in the data set on Halomonas aquamarina turned out to be 0.01 µg/mL (≈ 0.00911 µM).

For the molecule `COC1=C(Br)[C@H](O)[C@@]2(C=C1Br)CC(C(=O)NCCC(O)CNC(=O)C1=NO[C@]3(C=C(Br)C(OC)=C(Br)[C@@H]3O)C1)=NO2` (stereo partly drawn) [11-hydroxyaerothionin (15), 11-hydroxy-aerothionin], the IC50 in data set [1] (setting [3]) worked out at 10 ± 0.3 µM. Besides, the “MIC Roseobacter littoralis” value in the data set on Roseobacter littoralis (setting [4]) was over 1 µg/mL. The “MIC Escherichia coli” value against Escherichia coli (setting [5]) was over 1 µg/mL. The “MIC Vibrio aesturianus” value against Vibrio aesturianus (setting [5]) was over 1 µg/mL. The “MIC Halomonas aquamarina” value in the data set with Halomonas aquamarina (setting [4]) is 0,01 µg/mL.

Regarding `COC1=C(Br)[C@H](O)[C@@]2(C=C1Br)CC(C(=O)NCCc1cc(Br)c(OC[C@H](O)CNC(=O)C3=NO[C@]4(C=C(Br)C(OC)=C(Br)[C@@H]4O)C3)c(Br)c1)=NO2` [17-deoxy-11-epi-fistularin-3 (10), 17-deoxy-11(R)-epi-fistularin-3], in data set [1] (setting [3]), the half-inhibitory concentration (IC50) was over 10 µM. Further, the minimum inhibitory concentration (MIC) in the data set on Roseobacter littoralis (setting [4]) is over 1 µM; in the data set with Escherichia coli (setting [6]) it was over 1 µM; in the data set on Vibrio aesturianus (setting [7]), over 1 µM; in the data set with Halomonas aquamarina (setting [4]), 0.01 µM (≈ 0.011 µg/mL).

In the case of `COC1=C(Br)[C@H](O)[C@@]2(C=C1Br)CC(C(=O)NCC(=O)c1cc(Br)c(OC[C@H](O)CNC(=O)C3=NO[C@]4(C=C(Br)C(OC)=C(Br)[C@@H]4O)C3)c(Br)c1)=NO2` [17-oxo-11-epi-fistularin-3 (8), 17-oxo-11-epi-fistularin-3], the IC50 in data set [1] was over 10 µM. For the same molecule, the MIC in the data set with Roseobacter littoralis is over 1 µM; with Escherichia coli (48 h, read-out: MIC Escherichia coli), over 1 µM; with Vibrio aesturianus (48 h, read-out: MIC Vibrio aesturianus), 0.01 µM; in the data set on Halomonas aquamarina, over 1 µM.

`COC1=C(Br)[C@H](O)[C@@]2(C=C1Br)CC(C(=O)NC[C@@H](O)COc1c(Br)cc([C@H](O)CNC(=O)C3=NO[C@]4(C=C(Br)C(OC)=C(Br)[C@@H]4O)C3)cc1Br)=NO2` [epi-fistularin-3 (1), 11-epi-fistularin-3]: the half-inhibitory concentration (IC50) in data set [1] (setting [3]) was over 10 µM. The “stability in acidic aqueous acetonitrile (degradation products)” value in data set [2] is “gave agelorin A, agelorin B, and the compounds 2–7”. Besides, the MIC in the data set on Roseobacter littoralis (setting [4]), in the data set on Escherichia coli (setting [6]), with Vibrio aesturianus (setting [7]) and in the data set with Halomonas aquamarina (setting [4]) was over 1 µM in each case. Also, the remaining activity at 50 µM on DNMT1 (read-out: DNMT1 activity, percentage of control) is about 70%.

For `COC1=C(Br)[C@H](O)[C@@]2(C=C1Br)CC(C(=O)NC[C@@H](O)COc1c(Br)cc([C@H](O)CNC(=O)/C(Cc3cc(Br)c(OC)c(Br)c3O)=N/O)cc1Br)=NO2` [suberein-1 (2), suberein-1], the IC50 in data set [1] (setting [3]) is over 10 µM. In addition, the minimal inhibitory concentration (MIC) in the data set on Roseobacter littoralis (setting [4]) is 1 µM (≈ 1.11 µg/mL); in the data set on Escherichia coli (setting [6]) it was over 1 µM; in the data set with Vibrio aesturianus (setting [7]), 0.01 µM; in the data set with Halomonas aquamarina (setting [4]), over 1 µM.

Turning to `COC1=C(Br)[C@H](O)[C@@]2(C=C1Br)CC(C(=O)NC[C@@H](O)c1cc(Br)c(OC[C@H](O)CNC(=O)/C(Cc3cc(Br)c(OC)c(Br)c3O)=N/O)c(Br)c1)=NO2` [suberein-2 (3), suberein-2], the half-maximal inhibitory concentration (IC50) in data set [1] (setting [3]) is over 10 µM. The MIC was over 1 µM in the data set with Roseobacter littoralis (setting [4]); 0.01 µM in the data set with Escherichia coli (setting [6]); 0.01 µg/mL with Escherichia coli (the lowest concentration tested, read-out: MIC against E. coli); 0.01 µM with Vibrio aesturianus (setting [7]); 0.01 µg/mL in the data set on Vibrio aesturianus (the lowest concentration tested, read-out: MIC against V. aesturianus); over 1 µM in the data set on Halomonas aquamarina (setting [4]).

For agelorin A [agelorin A (11)], the “MIC Roseobacter littoralis” value with Roseobacter littoralis (setting [4]) was found to be 0.1 µg/mL. Further, the “MIC Vibrio aesturianus” value in the data set on Vibrio aesturianus (setting [5]) came out at 0.1 µg/mL. Moreover, the “MIC Halomonas aquamarina” value in the data set on Halomonas aquamarina (setting [4]) is 0.1 µg/mL.

Consider agelorin B [agelorin B (12)], for which the “MIC Roseobacter littoralis” value against Roseobacter littoralis (setting [4]) is over 1 µg/mL. The “MIC Escherichia coli” value with Escherichia coli (setting [5]) is over 1 µg/mL. Besides, in the data set on Vibrio aesturianus (setting [5]), the “MIC Vibrio aesturianus” value is over 1 µg/mL. In addition, the “MIC Halomonas aquamarina” value against Halomonas aquamarina (setting [4]) is on record as over 1 µg/mL.
